# Data as given in patent publication US11591326B2, “Inhibitors of protein arginine methyltransferase 5 (PRMT5), pharmaceutical products thereof, and methods thereof” (PHARMABLOCK SCIENCES (NANJING), INC., priority 2018, dated 2023).
# Target: Human recombinant PRMT5 in complex with human recombinant MEP50 (Homo sapiens (Human), UniProt O14744)
# Assay: PRMT5/MEP50 AlphaLISA enzyme inhibitory assay
# Assay type: biochemical
# Conditions: PRMT5/MEP50 25 nM, SAM 10 μM, Biotin-H4 peptide 30 nM
# Description: Human recombinant PRMT5 in complex with human recombinant MEP50, co-expressed in an insect cell/baculovirus expression system was purchased from Reaction Biology (Malvern, Pa.). […] Anti-H4R3-Me AlphaLISA acceptor beads and Streptavidin labeled AlphaLISA donor beads were obtained from PerkinElmer (Waltham, Mass.). S-adenosylmethionine (SAM), Tween20, dimethylsulfoxide (DMSO), and Tris buffer were obtained from Sigma at the highest level of purity available.
# General Procedure for PRMT5/MEP50 AlphaLISA Enzyme Inhibitory Assays: Assays were performed in the buffer consisting of 50 mM Tris, pH 8.5, 5 mM MgCl2, 50 mM NaCl with 0.01% Tween20 and 1 mM DTT added right before the assay. 2.5 μL of compound solution in the assay buffer with 4% DMSO and 5 μL of PRMT5/MRP50 complex/SAM mixture solution in the assay buffer which was pre-incubated for 30 minutes were added into a white low volume 384 well microtiter plate. This mixture solution was incubated for 15 minutes with gentle shaking at room temperature. Methyl transfer reaction was initiated by adding 2.5 μL of Biotin-H4 (1-21) peptide substrate solution in the assay buffer. Final concentrations of PRMT5/MEP50, SAM, Biotin-H4 peptide substrate, and DMSO were 25 nM, 10 μM, 30 nM, and 1%, respectively. The reaction was allowed to perform for 120 minutes in dark with gentle shaking at room temperature after which 5 μL of Anti-H4R3-Me AlphaLISA acceptor beads in detection buffer from the manufacturer was added into the reaction mixture followed by incubation for 60 minutes. 10 μL of Streptavidin labeled AlphaLISA donor beads in detection buffer was added into the mixture followed by 30 minute incubation. Final acceptor and donor beads concentrations were 10 μg/mL. Plates were read on an Envision multimode plate reader from PerkinElmer (Waltham Mass., USA) with an excitation wavelength of 680 nm and emission wavelength of 615 nm. IC50 values of inhibitors were obtained by fitting the fluorescence intensity vs inhibitor concentrations in a sigmoidal dose-response curve (variable slopes, four parameters) using Prism 7 (La Jolla, Calif.).
# Human recombinant PRMT5 in complex with human recombinant MEP50, sequence (O14744 whole entry): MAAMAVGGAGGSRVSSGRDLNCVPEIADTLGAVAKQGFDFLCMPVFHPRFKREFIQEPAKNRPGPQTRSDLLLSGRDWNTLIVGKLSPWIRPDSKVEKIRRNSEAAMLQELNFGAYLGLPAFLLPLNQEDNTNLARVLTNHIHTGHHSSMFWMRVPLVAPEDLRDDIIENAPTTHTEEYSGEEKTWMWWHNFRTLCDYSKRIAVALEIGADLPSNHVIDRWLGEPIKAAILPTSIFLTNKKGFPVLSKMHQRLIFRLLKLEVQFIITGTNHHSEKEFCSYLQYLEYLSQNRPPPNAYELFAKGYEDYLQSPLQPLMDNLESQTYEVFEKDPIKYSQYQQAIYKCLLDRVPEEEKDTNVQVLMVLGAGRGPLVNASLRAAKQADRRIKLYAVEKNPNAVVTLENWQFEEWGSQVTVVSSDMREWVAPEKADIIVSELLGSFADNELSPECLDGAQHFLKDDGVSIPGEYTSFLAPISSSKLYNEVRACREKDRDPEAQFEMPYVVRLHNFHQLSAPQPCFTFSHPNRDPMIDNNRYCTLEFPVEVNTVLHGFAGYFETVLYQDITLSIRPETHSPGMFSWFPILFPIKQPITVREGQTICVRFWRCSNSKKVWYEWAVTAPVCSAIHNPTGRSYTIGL
# Human recombinant PRMT5 in complex with human recombinant MEP50, sequence (Q9BQA1 whole entry partner): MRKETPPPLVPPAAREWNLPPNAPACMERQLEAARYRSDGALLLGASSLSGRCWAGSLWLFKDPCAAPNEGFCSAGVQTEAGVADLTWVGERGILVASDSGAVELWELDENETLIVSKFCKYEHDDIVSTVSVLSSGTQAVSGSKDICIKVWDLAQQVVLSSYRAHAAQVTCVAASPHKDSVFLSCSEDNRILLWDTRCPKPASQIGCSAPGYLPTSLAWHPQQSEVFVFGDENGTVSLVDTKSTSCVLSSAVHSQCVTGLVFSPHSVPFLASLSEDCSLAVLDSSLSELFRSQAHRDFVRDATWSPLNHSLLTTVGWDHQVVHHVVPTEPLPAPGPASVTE
row,IC50,Compound
1,13 nM,"O=C1c2cc(Nc3ccnnc3)ccc2OCCN1CC(O)CN1CCc2ccccc2C1 (racemic) [Compound 30, 4-(3-(3,4-dihydroisoquinolin-2(1H)-yl)-2-hydroxypropyl)-7-(pyridazin-4-ylamino)-3,4-dihydrobenzo[f][1,4]oxazepin-5(2H)-one]"
2,22.5 nM,"O=C1c2cc(Nc3cccnn3)ccc2OCCN1C[C@H](O)CN1CCc2ccccc2C1 [Compound 39, (R)-4-(3-(3,4-dihydroisoquinolin-2(1H)-yl)-2-hydroxypropyl)-7-(pyridazin-3-ylamino)-3,4-dihydrobenzo[f][1,4]oxazepin-5(2H)-one]"
3,14 nM,"CC(=O)N1CCC(Nc2ccc3c(c2)C(=O)N(CC(O)CN2CCc4ccccc4C2)CC3)CC1 (racemic) [Compound 24, 7-((1-acetylpiperidin-4-yl)amino)-2-(3-(3,4-dihydroisoquinolin-2(1H)-yl)-2-hydroxypropyl)-3,4-dihydroisoquinolin-1(2H)-one]"
4,487 nM,"Cn1cc(Nc2cc3c(cc2Cl)CCN(CC(O)CN2CCc4ccccc4C2)C3=O)cn1 (stereo not drawn) [Compound 26, 6-chloro-2-(3-(3,4-dihydroisoquinolin-2(1H)-yl)-2-hydroxypropyl)-7-((1-methyl-1H-pyrazol-4-yl)amino)-3,4-dihydroisoquinolin-1(2H)-one]"
5,296 nM,"O=C1c2cc(Nc3ccnnc3)ccc2CCN1C[C@@H](O)CN1CCc2ccccc2C1 [Compound 28b, (S)-2-(3-(3,4-dihydroisoquinolin-2(1H)-yl)-2-hydroxypropyl)-7-(pyridazin-4-ylamino)-3,4-dihydroisoquinolin-1(2H)-one]"
6,7.7 nM,"O=C1c2cc(Nc3ccnnc3)c(F)cc2OCCN1CC(O)CN1CCc2ccccc2C1 (stereo not drawn) [Compound 50, 4-(3-(3,4-dihydroisoquinolin-2(1H)-yl)-2-hydroxypropyl)-8-fluoro-7-(pyridazin-4-ylamino)-3,4-dihydrobenzo[f][1,4]oxazepin-5(2H)-one]"
7,9.9 nM,"O=C1c2cc(Nc3ccncn3)ccc2OCCN1C[C@H](O)CN1CCc2ccccc2C1 [Compound 37, (R)-4-(3-(3,4-dihydroisoquinolin-2(1H)-yl)-2-hydroxypropyl)-7-(pyrimidin-4-ylamino)-3,4-dihydrobenzo[f][1,4]oxazepin-5(2H)-one]"
8,77 nM,"CC(=O)N1CC(Nc2ccc3c(c2)C(=O)N(CC(O)CN2CCc4ccccc4C2)CC3)C1 (stereo not drawn) [Compound 6, 7-((1-acetylazetidin-3-yl)amino)-2-(3-(3,4-dihydroisoquinolin-2(1H)-yl)-2-hydroxypropyl)-3,4-dihydroisoquinolin-1(2H)-one]"
9,36 nM,"O=C1c2cc(Nc3ccnnc3)ccc2OCCN1C[C@@H](O)CN1CCc2ccccc2C1 [Compound 30b, (S)-4-(3-(3,4-dihydroisoquinolin-2(1H)-yl)-2-hydroxypropyl)-7-(pyridazin-4-ylamino)-3,4-dihydrobenzo[f][1,4]oxazepin-5(2H)-one]"
10,158 nM,"O=C1c2cc(-c3cncnc3)ccc2CCN1CC(O)CN1CCc2ccccc2C1 (stereo not drawn) [Compound 14, 2-(3-(3,4-dihydroisoquinolin-2(1H)-yl)-2-hydroxypropyl)-7-(pyrimidin-5-yl)-3,4-dihydroisoquinolin-1(2H)-one]"
11,132 nM,"Cn1cc(Nc2cnc3c(c2)C(=O)N(CC(O)CN2CCc4ccccc4C2)CC3)cn1 (stereo not drawn) [Compound 20, 6-(3-(3,4-dihydroisoquinolin-2(1H)-yl)-2-hydroxypropyl)-3-((1-methyl-1H-pyrazol-4-yl)amino)-7,8-dihydro-1,6-naphthyridin-5(6H)-one]"
12,179 nM,"O=c1c2cc(Nc3ccnnc3)ccc2ncn1CC(O)CN1CCc2ccccc2C1 (stereo not drawn) [Compound 31, 3-(3-(3,4-dihydroisoquinolin-2(1H)-yl)-2-hydroxypropyl)-6-(pyridazin-4-ylamino)quinazolin-4(3H)-one]"
13,22.4 nM,"O=c1c2cc(Nc3ccnnc3)ccc2cnn1CC(O)CN1CCc2ccccc2C1 (stereo not drawn) [Compound 33, 2-(3-(3,4-dihydroisoquinolin-2(1H)-yl)-2-hydroxypropyl)-7-(pyridazin-4-ylamino)phthalazin-1(2H)-one]"
14,29 nM,Cn1cc(Nc2ccc3c(c2)C(=O)N(CC(O)CN2CCc4ccccc4C2)CC3)cn1 (stereo not drawn) [Compound 12]
15,13.6 nM,"O=C1c2cc(Nc3cnccn3)ccc2OCCN1C[C@H](O)CN1CCc2ccccc2C1 [Compound 38, (R)-4-(3-(3,4-dihydroisoquinolin-2(1H)-yl)-2-hydroxypropyl)-7-(pyrazin-2-ylamino)-3,4-dihydrobenzo[f][1,4]oxazepin-5(2H)-one]"
16,10 nM,"O=C1c2cc(Nc3cnn(C4CCOCC4)c3)ccc2CCN1CC(O)CN1CCc2ccccc2C1 (stereo not drawn) [Compound 25, 2-(3-(3,4-dihydroisoquinolin-2(1H)-yl)-2-hydroxypropyl)-7-((1-(tetrahydro-2H-pyran-4-yl)-1H-pyrazol-4-yl)amino)-3,4-dihydroisoquinolin-1(2H)-one]"
17,10.3 nM,"O=C1c2cc(Nc3cncnc3)ccc2OCCN1C[C@H](O)CN1CCc2ccccc2C1 [Compound 36, (R)-4-(3-(3,4-dihydroisoquinolin-2(1H)-yl)-2-hydroxypropyl)-7-(pyrimidin-5-ylamino)-3,4-dihydrobenzo[f][1,4]oxazepin-5(2H)-one]"
18,39 nM,Cn1cc(Nc2ccc3c(c2)C(=O)N(CC(O)CN2CCc4ccccc4C2)CCO3)cn1 (stereo not drawn) [Compound 29]
19,480 nM,"CC1Cc2ccc(NC3COC3)cc2C(=O)N1CC(O)CN1CCc2ccccc2C1 (stereo not drawn) [Compound 21, 2-(3-(3,4-dihydroisoquinolin-2(1H)-yl)-2-hydroxypropyl)-3-methyl-7-(oxetan-3-ylamino)-3,4-dihydroisoquinolin-1(2H)-one]"
20,159 nM,"CC(=O)N1CCC(Nc2cc(F)c3c(c2)C(=O)N(C[C@@H](O)CN2CCc4ccccc4C2)CCO3)CC1 [Compound 2b, (S)-7-((1-acetylpiperidin-4-yl)amino)-4-(3-(3,4-dihydroisoquinolin-2(1H)-yl)-2-hydroxypropyl)-9-fluoro-3,4-dihydrobenzo[f][1,4]oxazepin-5(2H)-one]"
21,9.9 nM,"Cn1nccc1Nc1ccc2c(c1)C(=O)N(C[C@H](O)CN1CCc3ccccc3C1)CCO2 [Compound 41, (R)-4-(3-(3,4-dihydroisoquinolin-2(1H)-yl)-2-hydroxypropyl)-7-((1-methyl-1H-pyrazol-5-yl)amino)-3,4-dihydrobenzo[f][1,4]oxazepin-5(2H)-one]"
22,56.3 nM,"O=C1c2cc(Nc3ccnnc3)cnc2OCCN1CC(O)CN1CCc2ccccc2C1 (stereo not drawn) [Compound 47, 4-(3-(3,4-dihydroisoquinolin-2(1H)-yl)-2-hydroxypropyl)-7-(pyridazin-4-ylamino)-3,4-dihydropyrido[3,2-f][1,4]oxazepin-5(2H)-one]"
23,1100 nM,"CC(=O)N1CC2C(C1)C2Nc1ccc2c(c1)C(=O)N(CC(O)CN1CCc3ccccc3C1)CCO2 (stereo not drawn) [Compound 56, 7-((3-acetyl-3-azabicyclo[3.1.0]hexan-6-yl)amino)-4-(3-(3,4-dihydroisoquinolin-2(1H)-yl)-2-hydroxypropyl)-3,4-dihydrobenzo[f][1,4]oxazepin-5(2H)-one]"
24,61 nM,"Cn1ccc(Nc2ccc3c(c2)C(=O)N(CC(O)CN2CCc4ccccc4C2)CC3)n1 (stereo not drawn) [Compound 23, 2-(3-(3,4-dihydroisoquinolin-2(1H)-yl)-2-hydroxypropyl)-7-((1-methyl-1H-pyrazol-3-yl)amino)-3,4-dihydroisoquinolin-1(2H)-one]"
